From patent US20260077065A1, “Compositions and Methods for Assessing Kinase Activity” (The Board of Trustees of the Leland Stanford Junior …, priority 2022, published 2026)

Legend:
ERK [1] = experiment: U87-EGFRvIII stable tKiMBI/tKiMBImut reporter cell lines, bioluminescence; type: cell-based, human; details: for induction of bioluminescence: tKiMBI-expressing cells; for effect on bioluminescence of control cell lines: tKiMBImut-expressing cells
Protocol: Next, the ability of KiMBIs to report ERK kinase inhibition in human tumor xenografts in mice was tested. U87-EGFRvIII cells were transduced with lentiviruses expressing tKiMBI-T2A-AkaLuc, where AkaLuc allows kinase-independent tracking of tumor location and size (FIG. 6a). Transduced cells were sorted by fluorescence-activated cell sorting (FACS) and selected by antibiotics to generate polyclonal stable cell lines.
Generation of KiMBI-expressing stable tumor cell lines. U87-EGFRvIII and LN229 cells were lentiviral transduced with pLL3.7m-CMV-KiMBI-T2A-AkaLuc-P2A-Blasticidin. Then, 72 h after transfection, cells were dissociated with trypsin and resuspended in DMEM and then changed to PBS. Suspended cells were sorted for the population with medium fluorescence level (20-40%) on a fluorescence-activated cell sorter (FACS), the FACSJazz (BD Biosciences) at Stanford Shared FACS Facility. After cell sorting, the KiMBI-expressing cells were maintained and passaged in corresponding culture medium supplemented with blasticidin (6 μg/mL for both cell lines) to select for stable polyclonal cell lines. Flow cytometry data were analyzed on FlowJo software. The stable KiMBI expression was validated by examination of tdTomato fluorescence in tKiMBI (and its variants) using an EVOS FL Autoimaging system (Thermo Scientific).
(§1) In vitro cell-based bioluminescent assay. Cells were seeded into 96-well Lumitrac plate (Greiner Bio-One) at a density of 1.5-2×10^4 cells per well. After 24 h, cells were transiently transfected with KiMBI-expressing plasmids (5-10 ng per well) with or without caMEK-expressing plasmids (50 ng per well, empty pcDNA3.1 as negative control to keep total transfected DNA amount consistent) using lipofectamine 3000 (Invitrogen) following manufacturer's instructions. For the stable polyclonal KiMBI-expressing cell liens, this lipofection step was skipped. At 24 h after transfection, the cells were treated with drugs at desired concentration in opti-MEM reduced-serum medium (Thermo Fisher) for 1-1.5 hours. Then, for assaying luminescence, Nano-Glo live cell assay system (Promega) was used following manufacturer's instructions. Time-lapse live luminescence was recorded on Safire-2 microplate reader (Tecan) with 100 ms integration and one read per min for 20 min. Luminescence spectrum was measured on a Varioskan LUX multimode microplate reader (Thermo Scientific) using the spectral scanning protocol with 1 s integration for each wavelength at 400-680 nm (1 nm per data point).

ERK [2] = details: mouse, in vivo; cited from earlier work
ERK [3] = experiment: Imaging of ERK inhibition in intracranially implanted U87-EGFRvIII cells; type: in vivo, mice
Protocol: Tested next was whether KiMBI can report ERK inhibition in the brain tumor xenograft model.
U87-EGFRvIII xenografts are known to disrupt the BBB^16. When the BBB-impermeant GSK1120212 (1 mg/kg i.p.) was administered to the same group of mice, a positive response was also observed, with ˜150% higher tKiMBI signal.
(§2) General procedures of kinase inhibitor injection and in vivo bioluminescence imaging. […] For KiMBI (NanoLuc-based bioluminescent reporter) imaging, mice were i.p. injected with either 1.3 μmol (0.56 mg) of fluorofurimazine (FFz) or cephalofurimazine (CFz) in 150 μl of injectable formulation containing 6 mg poloxamer-407 (P-407) in Dulbecco Phosphate Buffered Saline (DPBS, without Ca^2+ or Mg^2+, no. 21-031-CV, Corning) for imaging. Immediately after luciferin administration, mice were anesthetized using isoflurane, and images were acquired in the Ami HT optical imaging system every 1 min for 10 min, with an air flow containing 1-2% isoflurane for stable anesthesia. Imager settings were: emission filter, open; field of view, 25 cm; f-stop 1.2; binning, 2×2 and exposure time, 30 s. Images were analyzed in Aura 4.0 in vivo imaging software. The above-mentioned conditions and settings were for most in vivo studies unless otherwise stated in the specific procedures.
Molecular imaging of ERK inhibition in intracranially implanted cells. The stereotaxic injection on the 7- to 9-week-old male J:NU mice were similar to the afore-mentioned AAV infection surgery. A Hamilton syringe with a 26-gauge needle was inserted 0.62 mm […] and 1.75 mm lateral to the bregma to a depth of 3.5 mm, and after a 2 min wait the needle was pulled back 0.5 mm to allow space for the cell suspension. Following this, 3×10^4 KiMBI-expressing U87-EGFRvIII or LN-229 stable cells in 1.5 μl of PBS were injected at an injection speed of 0.3 μL/min using the syringe pump. To visualize ERK inhibition in U87-EGFRvIII cell implants, 5 days after cell implantation, tumor-bearing mice were i.p. injected with CFz (0.4 μmol, with 1.8 mg P-407) for imaging. […]

[4] = previously characterized; cited from earlier work
Akt [5] = experiment: Akt oKiMBI luminescence in HEK293A (caAkt), U87-EGFRvIII and LNCaP cells; type: cell-based, human; details: all cell lines: HEK293A (caAkt), U87-EGFRvIII, LNCaP
Akt [6] = experiment: U87-EGFRvIII cells stably expressing Akt oKiMBI or oKiMBImut, luminescence; type: cell-based, human
From the text: To assess Akt inhibition in human tumor xenografts in mice, either Akt oKiMBI- or oKiMBImut-expressing U87-EGFRvIII stable cell lines were first engineered through lentiviral transduction (FIG. 17a). Fluorescence-activated cell sorting (FACS) was subsequently employed to sort the transduced cells, followed by antibiotics selection to establish polyclonal stable cell lines.

Akt [7] = experiment: Molecular imaging of Akt inhibition in subcutaneous U87-EGFRvIII tumor model; type: in vivo; details: same mice after 2-day interval
From the text: Evaluated next was the capacity of Akt oKiMBI to report Akt inhibition in a subcutaneous tumor model. Engineered U87-EGFRvIII cells that stably express oKiMBI or oKiMBImut were subcutaneously injected at different sites in J:NU mice.

Akt [8] = experiment: BAR (bioluminescent Akt reporter, FLuc) luminescence in HEK293A (caAkt), U87-EGFRvIII and LNCaP cells; type: cell-based, human; details: all tested cell lines
ERK [9] = experiment: Time-lapse imaging of ERK inhibition in intracranially implanted U87-EGFRvIII cells; type: in vivo, mice
Protocol: A non-invasive method with the potential for longitudinal studying of drug pharmacokinetics and pharmacodynamics should allow rapid dose and schedule optimization for drug development.
as §2
Time-lapse imaging of ERK inhibition in intracranially implanted cells. One week after implantation of 10^5 KiMBI-expressing U87-EGFRvIII stable cells, the tumor-bearing mice were i.p. injected with CFz (0.2 μmol, with 0.8 mg P-407) for the initial imaging to establish the signal baseline before drug administration.

ERK [10] = experiment: Molecular imaging of ERK inhibition in subcutaneous U87-EGFRvIII tumor model; type: in vivo, mice; details: 2 h after injection, FFz imaging
Protocol: The ability of tKiMBI to report ERK pathway inhibition in tumors in vivo was assessed. Mice were injected subcutaneously with 10^6 tKiMBI-expressing cells on one side and, to control for differences in substrate delivery between injections, tKiMBImut-expressing reporter cells on the other side (FIG. 7a).
Molecular imaging of ERK inhibition in subcutaneously implanted cells. […]

ERK [11] = experiment: Imaging of ERK inhibition in intracranially implanted LN-229 cells; type: in vivo, mice; details: one week after implantation
Protocol: 3×10^4 LN-229 cells expressing tKiMBI or tKiMBImut were implanted into the striatum, and KiMBI assays were performed one week later.
Molecular imaging of ERK inhibition in intracranially implanted cells. The stereotaxic injection on the 7- to 9-week-old male J:NU mice were similar to the afore-mentioned AAV infection surgery. A Hamilton syringe with a 26-gauge needle was inserted 0.62 mm dorsal and 1.75 mm lateral to the bregma to a depth of 3.5 mm, and after a 2 min wait the needle was pulled back 0.5 mm to allow space for the cell suspension. […]

ERK [12] = experiment: ERK KiMBI cell-based bioluminescent assay, HEK293A cells co-transfected with caMEK
From the text: To develop a luciferase reporter protein whose activity can be activated by ERK inhibition, it was hypothesized that NanoLuc luciferase catalytic activity could be modulated through large ERK-induced conformational changes. Created and tested were fusion proteins of various topologies (FIG. 2a) comprising the NanoLuc NanoBiT fragments, an ERK substrate peptide from Cdc25C^7, and a proline-directed WW phospho-binding domain (WW)^8 from Pin1. In particular, an arrangement was postulated in which binding of phosphorylated substrate (pSub) to WW would force the SmBiT fragment to adopt an unfavorable conformation for LgBiT complementation, would show low luminescence with active ERK and high luminescence with inhibited ERK (FIG. 2b). The KiMBI candidates were screened by co-transfection into HEK293A cells with a constitutively active MEK (caMEK) followed by application of the ERK inhibitor Vx-Ile.
as §1

ERK [13] = experiment: Molecular imaging of ERK inhibition in KiMBI-encoded AAV infected mouse brain; type: in vivo
Protocol: Using CFz, tested was whether tKiMBI could report the BBB-permeance of ERK pathway inhibitors in living mice. tKiMBI-T2A-caMEK or the negative control tKiMBImut-T2A-caMEK were expressed in mouse striatum by AAV transduction (FIG. 9a).
as §2
Molecular imaging of ERK inhibition in KIMBI-encoded AAV infected mouse brain. […]

With `CC(=O)Nc1cccc(-n2c(=O)n(C3CC3)c(=O)c3c(Nc4ccc(I)cc4F)n(C)c(=O)c(C)c32)c1` [GSK1120212, trametinib] as the compound, how does the induction of bioluminescence (ERK [1]) read?
Its induction of bioluminescence is ~4 fold.

What about the “drug level and ERK inhibition in brains of drug-injected mice” value (ERK [2]) of the same compound?
The value was “no detectable GSK1120212 or ERK inhibition”.

And the “higher tKiMBI signal” value (ERK [3]; 1 mg/kg i.p., same group of mice)?
Its value is ~150%.

What about the BBB permeation [4] of the same compound?
Its BBB permeation is “poor BBB permeation”.

Which “oKiMBI luminescence response to Akt inhibitor” value (Akt [5]) does the source give for `NC(=O)c1cccc2c(N[C@H](CN3CCC3)c3ccc(Cl)c(C(F)(F)F)c3)ncnc12` [M2698] here?
Its value is “significant increase in luminescence”.

What about the “signal response of oKiMBImut cells to drug treatment” value (Akt [6]; cells expressing oKiMBImut) of the same compound?
The value was “did not exhibit any signal increase”.

What about the “increase in luminescent signals” value (Akt [6]; cells stably expressing Akt oKiMBI) of the same compound?
The value was ~2.5 fold.

What about the “inhibition of the Akt pathway reported by Akt oKiMBI” value (Akt [7]) of the same compound?
The value was “effective inhibition of the Akt pathway”.

And the “BAR and BARmut response to Akt inhibitor” value (Akt [8])?
The value was “miniscule positive responses”.

For `O=C(NOC[C@H](O)CO)c1ccc(F)c(F)c1Nc1ccc(I)cc1F` [PD0325901, mirdametinib], which “return of signal to baseline” value (ERK [9]; 25 mg/kg i.p., tKiMBI) is on record?
The value was “backed to baseline on the second day”.

What about the “time for bioluminescence signal to rise to plateau” value (ERK [9]; 25 mg/kg i.p., tKiMBI) of the same compound?
Its value is ≤ 1 h.

What about the “time post-treatment at which signal declined to about half” value (ERK [9]; 25 mg/kg i.p., tKiMBI) of the same compound?
The value was “around 8 hrs”.

And the “time until which signal remained high” value (ERK [9]; 25 mg/kg i.p., tKiMBI)?
The value was “about 4 h”.

What about the “signal increase in control cells” value (ERK [9]; after 24 h, tKiMBImut control cells) of the same compound?
Its value is ~1.4 fold.

What about the “increase in brightness of tKiMBI tumor” value (ERK [10]; tKiMBI) of the same compound?
Its value is 100%.

What about the “increase in brightness of tKiMBImut tumor” value (ERK [10]; tKiMBImut control) of the same compound?
Its value is ~10%.

And the induction of bioluminescence (ERK [1])?
The induction of bioluminescence was ~4 fold.

What about the “effect on bioluminescence of control cell lines” value (ERK [1]) of the same compound?
Its value is “slightly reduced bioluminescence”.

And the “increase in signal from tKiMBI” value (ERK [11])?
Its value is > 3 fold.

And the “induction of tKiMBI signal” value (ERK [12]; AAV plasmids caMEK-T2A-tKiMBI (A1) and tKiMBI-T2A-caMEK (A2), both)?
Its value is “approximately 4 fold”.

What about the “bioluminescence of tKiMBI in brain” value (ERK [13]; 25 mg/kg, CFz imaging, tKiMBI-T2A-caMEK) of the same compound?
The value was “robustly induced bioluminescence”.

What about the “able to induce a signal increase in KiMBI” value (ERK [13]; AAV-infected mice brain (discussion)) of the same compound?
Its value is “able to induce a signal increase”.

And the “increase in tKiMBI signal” value (ERK [3]; after PD0325901 administration, CFz)?
Its value is ~200%.

And the “decrease in tKiMBImut signal” value (ERK [3]; after PD0325901 administration, control reporter)?
The value was ~10%.

What about the BBB permeation [4] of the same compound?
Its BBB permeation is “BBB-permeant”.

With `O=C(Nc1ccc2[nH]nc(-c3ccncc3)c2c1)[C@@H]1CCN(CC(=O)N2CCN(c3ccc(-c4ncccn4)cc3)CC2)C1` [SCH772984] as the compound, how does the induction of bioluminescence (ERK [1]) read?
The induction of bioluminescence was ~4 fold.

And the “effect on bioluminescence of control cell lines” value (ERK [1])?
The value was “slightly reduced bioluminescence”.

With `Cc1cnc(Nc2ccc(F)cc2Cl)nc1-c1c[nH]c(C(=O)N[C@H](CO)c2cccc(Cl)c2)c1` [Vx-11e] as the compound, how does the increase in luminescence (ERK [12]; 03 topology KiMBI candidate, 1 μM Vx-11e) read?
Its increase in luminescence is ~65%.

What about the “induction of bKiMBI luminescence by inhibitor” value (ERK [12]; ERK blue KiMBI (WW F25A)) of the same compound?
Its value is > 10 fold.
